In ChEMBL document CHEMBL1143454, “Arylphthalazines: identification of a new phthalazine chemotype as inhibitors of VEGFR kinase” (Bioorg Med Chem Lett, 2005):

Each compound was assayed against Vascular endothelial growth factor receptor 1 (Homo sapiens) (UniProt P17948) (assay: Percent inhibition of Vascular endothelial growth factor receptor 1 at 10 uM).
Chain of Vascular endothelial growth factor receptor 1 (Homo sapiens) (P17948 whole entry): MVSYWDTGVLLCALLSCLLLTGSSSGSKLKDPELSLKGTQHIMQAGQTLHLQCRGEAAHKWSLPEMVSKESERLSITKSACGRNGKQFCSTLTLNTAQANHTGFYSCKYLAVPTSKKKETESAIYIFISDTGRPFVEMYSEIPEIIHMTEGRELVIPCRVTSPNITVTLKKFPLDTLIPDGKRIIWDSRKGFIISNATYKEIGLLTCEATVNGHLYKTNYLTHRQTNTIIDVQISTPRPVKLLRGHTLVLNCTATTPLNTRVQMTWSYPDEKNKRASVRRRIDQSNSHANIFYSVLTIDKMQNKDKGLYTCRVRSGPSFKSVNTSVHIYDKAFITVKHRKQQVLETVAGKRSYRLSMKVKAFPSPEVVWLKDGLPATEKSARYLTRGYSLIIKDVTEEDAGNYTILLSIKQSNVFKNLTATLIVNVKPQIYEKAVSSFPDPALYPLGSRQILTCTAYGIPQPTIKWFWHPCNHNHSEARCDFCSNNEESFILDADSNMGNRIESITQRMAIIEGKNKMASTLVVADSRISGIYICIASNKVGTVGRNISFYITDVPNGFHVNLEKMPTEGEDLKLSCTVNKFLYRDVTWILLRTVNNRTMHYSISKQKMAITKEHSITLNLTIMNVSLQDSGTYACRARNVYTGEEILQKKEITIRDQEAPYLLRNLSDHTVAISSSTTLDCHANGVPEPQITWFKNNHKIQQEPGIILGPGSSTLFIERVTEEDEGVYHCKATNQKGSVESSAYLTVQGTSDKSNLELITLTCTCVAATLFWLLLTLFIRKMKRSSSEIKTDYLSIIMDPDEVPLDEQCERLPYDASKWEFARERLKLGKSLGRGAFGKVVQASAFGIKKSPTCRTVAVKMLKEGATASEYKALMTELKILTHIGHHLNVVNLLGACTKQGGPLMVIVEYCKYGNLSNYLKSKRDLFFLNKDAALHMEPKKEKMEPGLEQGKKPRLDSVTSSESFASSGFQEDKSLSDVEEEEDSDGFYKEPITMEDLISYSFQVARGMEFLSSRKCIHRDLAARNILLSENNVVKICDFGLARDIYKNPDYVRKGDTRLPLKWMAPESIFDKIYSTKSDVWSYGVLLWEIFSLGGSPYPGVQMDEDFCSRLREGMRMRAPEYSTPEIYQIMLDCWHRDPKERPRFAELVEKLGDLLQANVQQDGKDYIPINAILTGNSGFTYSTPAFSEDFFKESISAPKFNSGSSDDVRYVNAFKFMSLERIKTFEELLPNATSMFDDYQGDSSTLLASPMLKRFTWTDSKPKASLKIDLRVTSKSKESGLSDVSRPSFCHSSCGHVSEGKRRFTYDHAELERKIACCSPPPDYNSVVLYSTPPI
In the case of `CC(C)(C)c1ccc(Nc2nnc(-c3ccc(C(N)=O)cc3)c3ccccc23)cc1`, the inhibition is reported as 73%. Compound `NC(=O)c1ccc(-c2nnc(Nc3cccc(Br)c3)c3ccccc23)cc1` has an inhibition of 51%. For `NC(=O)c1ccc(-c2nnc(Nc3ccc(Br)cc3)c3ccccc23)cc1`, the inhibition was 53%. In the case of `CC(C)(C)c1cccc(Nc2nnc(-c3ccc(C(N)=O)cc3)c3ccccc23)c1`, the inhibition is reported as 60%.

These compounds were tested against Vascular endothelial growth factor receptor 2 (Homo sapiens, UniProt P35968) (assay: Inhibition of Vascular endothelial growth factor receptor 2 kinase phosphorylation of pGAT-biotin peptide).
Chain of Vascular endothelial growth factor receptor 2 (P35968 whole entry): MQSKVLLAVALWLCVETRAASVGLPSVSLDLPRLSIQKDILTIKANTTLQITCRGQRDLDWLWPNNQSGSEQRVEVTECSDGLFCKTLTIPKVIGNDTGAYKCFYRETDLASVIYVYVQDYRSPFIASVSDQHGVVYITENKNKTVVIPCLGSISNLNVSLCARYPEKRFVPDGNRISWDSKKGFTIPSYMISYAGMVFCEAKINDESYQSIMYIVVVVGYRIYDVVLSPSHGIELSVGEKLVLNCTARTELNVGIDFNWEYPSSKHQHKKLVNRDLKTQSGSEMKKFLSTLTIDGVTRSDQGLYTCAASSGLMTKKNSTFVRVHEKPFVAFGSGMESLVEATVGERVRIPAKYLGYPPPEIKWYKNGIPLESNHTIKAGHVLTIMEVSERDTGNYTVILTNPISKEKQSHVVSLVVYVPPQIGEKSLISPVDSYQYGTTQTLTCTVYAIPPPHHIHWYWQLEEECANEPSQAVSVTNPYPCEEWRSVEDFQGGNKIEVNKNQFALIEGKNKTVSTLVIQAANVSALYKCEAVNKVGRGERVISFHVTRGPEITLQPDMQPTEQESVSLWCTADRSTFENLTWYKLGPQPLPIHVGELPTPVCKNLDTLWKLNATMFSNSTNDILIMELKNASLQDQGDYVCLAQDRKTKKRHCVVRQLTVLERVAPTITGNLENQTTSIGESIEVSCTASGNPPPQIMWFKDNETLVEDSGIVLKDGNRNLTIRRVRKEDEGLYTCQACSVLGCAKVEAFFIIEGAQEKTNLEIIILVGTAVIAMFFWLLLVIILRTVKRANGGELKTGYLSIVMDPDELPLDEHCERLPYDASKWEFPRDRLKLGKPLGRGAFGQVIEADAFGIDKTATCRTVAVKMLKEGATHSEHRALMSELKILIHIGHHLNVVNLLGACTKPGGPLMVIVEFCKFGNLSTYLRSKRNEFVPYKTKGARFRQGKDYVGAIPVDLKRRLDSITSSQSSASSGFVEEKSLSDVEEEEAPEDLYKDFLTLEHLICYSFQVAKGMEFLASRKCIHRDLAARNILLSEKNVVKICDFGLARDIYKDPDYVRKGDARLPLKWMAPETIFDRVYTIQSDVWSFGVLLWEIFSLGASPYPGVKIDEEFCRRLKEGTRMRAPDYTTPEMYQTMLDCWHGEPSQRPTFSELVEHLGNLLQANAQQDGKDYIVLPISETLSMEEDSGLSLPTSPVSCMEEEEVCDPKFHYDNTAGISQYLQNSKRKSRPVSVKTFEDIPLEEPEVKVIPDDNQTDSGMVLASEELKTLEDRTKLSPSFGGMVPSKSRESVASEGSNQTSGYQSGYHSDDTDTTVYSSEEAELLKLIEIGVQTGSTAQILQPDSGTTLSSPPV
For `CC(C)(C)NC(=O)c1ccc(-c2nnc(Nc3ccc(OC(F)(F)Cl)cc3)c3ccccc23)cc1`, the IC50 was > 10 µM. `COc1ccc(Nc2nnc(-c3ccc(C(N)=O)cc3)c3ccccc23)cc1` gave an IC50 of 2 µM. `CCOc1ccc(-c2nnc(Nc3ccc(C)cc3)c3ccccc23)cc1` was tested, and the IC50 was > 10 µM. `NC(=O)c1ccc(-c2nnc(Nc3ccc(S(N)(=O)=O)cc3)c3ccccc23)cc1` was tested, and the IC50 was > 10 µM. For `Cc1ccc(-c2nnc(Nc3ccc(OC(F)(F)Cl)cc3)c3ccccc23)cc1S(=O)(=O)NC(C)C`, the IC50 was > 10 µM. `O=C(NCCO)c1ccc(-c2nnc(Nc3ccc(OC(F)(F)Cl)cc3)c3ccccc23)cc1` showed an IC50 of 1.1 µM.
